The values below come from patent publication US5098923A, “Aromatase inhibiting 4(5)-imidazoles” (Farmos-Yhtyma Oy, priority 1987, dated 1992).

Like-named read-outs stand apart in the source and are kept apart here.

One data set concerns the target T1, human aromatase (Homo sapiens, UniProt P11511).
T1 construct: The enzyme preparation was used without further purification; from tissue; host or cells: human placenta, microsomal fraction (100000×g precipitate)
T1 sequence (P11511 1-503): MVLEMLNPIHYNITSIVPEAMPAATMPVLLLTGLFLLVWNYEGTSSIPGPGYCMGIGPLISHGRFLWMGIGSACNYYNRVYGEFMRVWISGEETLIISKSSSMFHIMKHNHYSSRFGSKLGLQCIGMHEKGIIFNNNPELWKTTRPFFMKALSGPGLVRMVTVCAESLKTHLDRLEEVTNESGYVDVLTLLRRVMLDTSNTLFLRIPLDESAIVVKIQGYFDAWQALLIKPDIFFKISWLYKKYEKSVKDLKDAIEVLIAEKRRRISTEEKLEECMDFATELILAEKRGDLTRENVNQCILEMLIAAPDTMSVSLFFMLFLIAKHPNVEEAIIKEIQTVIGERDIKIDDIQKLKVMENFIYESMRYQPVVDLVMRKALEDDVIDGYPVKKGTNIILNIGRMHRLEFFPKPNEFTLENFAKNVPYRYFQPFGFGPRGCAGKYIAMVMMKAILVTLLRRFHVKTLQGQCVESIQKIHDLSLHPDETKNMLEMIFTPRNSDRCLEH
The experiment in a line: In vitro inhibition of human placental aromatase (3H2O release from 1,2[3H]-androstene-3,17-dione). The data set is classed as biochemical. As to conditions: for IC10: 40 min, read-out: AROMATASE IC-10; for IC90: read-out: AROMATASE IC-90.

The subject of a further data set is desmolase. The data set is described as follows: Cholesterol side-chain cleavage (desmolase, P450 scc) inhibition. As to conditions: read-out: DESMOLASE IC-50; Table 2; 30 min at 37° C.; human placenta or bovine adrenals as enzyme source, table title says human.
For a further data set, the system named is α2. As to conditions: described in EP-194984; cited from earlier work.

Method for human aromatase: Human aromatase enzyme was used. The enzyme was prepared from human placenta, which is rich in the enzyme. Microsomal fraction (100000×g precipitate) was prepared by centrifugation. The enzyme preparation was used without further purification. Test compounds listed in Table 1 were added with 100000 dpm of 1,2[^3 H]-androstene-3,17-dione and NADPH generating system. The concentrations of the test compounds were 0,001; 0,01; 0,1 and 1,0 mM. The incubation was carried out at 37° C. for 40 min. Aromatization of 1,2[^3 H]-androstene-3,17-dione results in the production of ^3 H2 O. The tritiated water and the tritiated substrate are easily separated by a Sep-Pak® minicolumn, which absorbs the steroid but allows free water elution. Radioactivity was counted by a liquid scintillation counter. Aromatase inhibition was evaluated by comparing the ^3 H2 O-radioactivity of inhibitor treated samples to controls containing no inhibitor. IC-10, IC-50 and IC-90 values were calculated as concentrations which inhibited the enzyme activity 10%, 50% and 90%, respectively.

`COc1cccc(C(=CCc2cncn2Cc2ccccc2)c2cccc(OC)c2)c1` [Compound 16] gave an IC50 on human aromatase of 14 µM.
For the compound `Fc1cccc(C(CCc2c[nH]cn2)c2cccc(F)c2)c1` [Compound 19, 4-[3,3-bis(3-fluorophenyl)propyl]-1H-imidazole], the IC50 in the data set on desmolase came to 20 µM.
Turning to `COc1cccc(C(CCc2cncn2Cc2ccccc2)c2cccc(OC)c2)c1` [Compound 15, 1-benzyl-5-[3,3-bis(3-methoxyphenyl)propyl]-1H-imidazole], at human aromatase (read-out: AROMATASE IC-50), the IC50 amounted to 4 µM.
Turning to `c1ccc(CCC(CCc2cncn2Cc2ccccc2)c2ccccc2)cc1` (centres unmarked) [Compound 21, 1-benzyl-5-(3,5-diphenylpentyl)-1H-imidazole], the IC50 on human aromatase (read-out: AROMATASE IC-50) is 17 µM.
Consider `Cc1ccc(C(CCc2c[nH]cn2)c2ccc(C)cc2)cc1` [Compound 18, 4-[3,3-bis(4-methylphenyl)propyl]-1H-imidazole], for which, in the data set with desmolase, the IC50 was 48 µM.
With `COc1ccc(C(CCc2c[nH]cn2)c2ccc(OC)cc2)cc1` [Compound 22, 4-[3,3-bis(4-methoxyphenyl)propyl]-1H-imidazole], the IC50 in the data set with desmolase turned out to be 26 µM.
On to `COc1ccccc1C(CCc1c[nH]cn1)c1ccccc1OC` [Compound 25, 4-[3,3-bis(2-methoxyphenyl)propyl]-1H-imidazole], for which, on human aromatase (read-out: AROMATASE IC-50), the IC50 turned out to be 8.6 µM.
In the case of `OC(CCc1c[nH]cn1)(c1ccc(Cl)cc1)c1ccc(Cl)cc1` [Compound 2, 4-[3,3-bis(4-chlorophenyl)-3-hydroxypropyl]-1H-imidazole], at human aromatase, the IC10 came out at 4 µM and the IC90 came out at 1000 µM. For the same compound, on human aromatase (read-out: AROMATASE IC-50), the IC50 amounted to 60 µM.
The matching figures for `OC(CCc1c[nH]cn1)(c1ccccc1)c1ccccc1` [Compound 3, 4-(3,3-diphenyl-3-hydroxypropyl)-1H-imidazole]: 4 µM, 1000 µM and 70 µM.
In the case of `Cc1cccc(C(=CCc2c[nH]cn2)c2cccc(C)c2)c1` [Compound 12], at human aromatase, the IC50 is 62 µM, the IC10 is 1 µM and the IC90 was found to be 1000 µM.
Consider `Cc1cccc(C(CCc2c[nH]cn2)c2cccc(C)c2C)c1C` [Compound 14, 4-[3,3-bis(2,3-dimethylphenyl)propyl]-1H-imidazole], for which the IC50 on human aromatase (read-out: AROMATASE IC-50) is 44 µM.
Take `Cc1ccccc1C(O)(CCc1c[nH]cn1)c1ccccc1C` [Compound 6, 4-[3,3-bis(2-methylphenyl)-3-hydroxpropyl]-1H-imidazole]: on human aromatase, the IC50 was found to be 300 µM, the IC10 came out at 15 µM and the IC90 was over 1000 µM.
On to `C(=CC(c1ccccc1)c1ccccc1)c1cncn1Cc1ccccc1` [Compound 28, 1-benzyl-5-(3,3-diphenylpropen-1-yl)-1H-imidazole], for which the IC50 at human aromatase (read-out: AROMATASE IC-50) worked out at 14 µM.
For the compound `COc1cccc(C(CCc2c[nH]cn2)c2cccc(OC)c2)c1` [Compound 13, 4-[3,3-bis(3-methoxyphenyl)propyl]-1H-imidazole], the IC50 at human aromatase (read-out: AROMATASE IC-50) turned out to be 3 µM.
On human aromatase, `C(Cc1cncn1Cc1ccccc1)=C(c1ccccc1)c1ccccc1` [Compound 20] showed an IC50 of 50 µM.
With `Cc1ccc(C(CCc2c[nH]cn2)c2ccccc2)cc1` (centres unmarked) [Compound 24, 4-[3-(4-methylphenyl)-3-phenylpropyl]-1H-imidazole], the IC50 in the data set with desmolase amounted to 50 µM.
On to `Cc1ccccc1C(=CCc1c[nH]cn1)c1ccccc1C` [Compound 8], for which, at human aromatase, the IC50 was found to be 80 µM, the IC10 came to 1.5 µM and the IC90 was over 1000 µM.
Consider `c1ccc(C(Cc2c[nH]cn2)c2ccccc2)cc1` [4-(2,2-diphenylethyl)-1H-imidazole], for which the α2-blocking properties result in the data set on α2 is recorded as “selective α2 -blocking properties”.
In the case of `Cc1cccc(C(CCc2c[nH]cn2)c2cccc(C)c2)c1` [Compound 11, 4-[3,3-bis(3-methylphenyl)propyl]-1H-imidazole], in the data set on desmolase, the IC50 was found to be 29 µM.
As to `Cc1cccc(C)c1CCC(O)(CCc1c[nH]cn1)CCc1c(C)cccc1C` [Compound 1, 4-[5-(2,6-dimethylphenyl)-3-hydroxy-3-(2,6-dimethylphenylethyl)pentyl]-1H-imidazole], on human aromatase, the IC10 is 20 µM and the IC90 was over 1000 µM. At human aromatase (read-out: AROMATASE IC-50), the IC50 came out at 1000 µM.
For the compound `Fc1ccc(C(CCc2c[nH]cn2)c2ccccc2)cc1` (centres unmarked) [Compound 26, 4-[3-(4-fluorophenyl)-3-phenylpropyl]-1H-imidazole], the IC50 in the data set on desmolase stood at 440 µM.
Take `Cc1cc(C)cc(C(CCc2c[nH]cn2)c2cc(C)cc(C)c2)c1` [Compound 17, 4-[3,3-bis(3,5-dimethylphenyl)propyl]-1H-imidazole]: at human aromatase (read-out: AROMATASE IC-50), the IC50 came out at 130 µM.
For the compound `C(Cc1c[nH]cn1)=C(c1ccccc1)c1ccccc1` [Compound 4], at human aromatase, the IC50 was determined as 6 µM, the IC10 was under 1 µM and the IC90 amounted to 100 µM.
`c1ccc(Cn2cncc2CCC(c2ccccc2)c2ccccc2)cc1` [Compound 10, 1-benzyl-5-(3,3-diphenylpropyl)-1H-imidazole]: on human aromatase, the IC10 is about 0.6 µM and the IC90 was 100 µM. In addition, at human aromatase (read-out: AROMATASE IC-50), the IC50 was determined as 4 µM.
As for `Clc1ccc(C(=CCc2c[nH]cn2)c2ccc(Cl)cc2)cc1` [Compound 7], at human aromatase, the IC50 turned out to be 35 µM, the IC10 was 2 µM and the IC90 was determined as 600 µM.
On to `Fc1ccc(C(CCc2c[nH]cn2)c2ccc(F)cc2)cc1` [Compound 27, 4-[3,3-bis(4-fluorophenyl)propyl]-1H-imidazole], for which, in the data set with desmolase, the IC50 worked out at 30 µM.
